Reference: publication PMC10778758, “Dithioethanol (DTE)-Conjugated Deoxyribose Cyclic Dinucleotide Prodrugs (DTE-dCDNs) as STING Agonist” (International Journal of Molecular Sciences, 2023)
Where “and” joins values, the source holds several entries; their conditions need not be identical. Identical values can stand only once.

Assays:
[1] = Release of parent dCDN from prodrug 9 initiated by DTT or GSH (HPLC); type: in vitro ADME
Experimental: To analyze the reduction dependency, we performed the in vitro cleavage test by incubating prodrug 9 with a reductive substance such as GSH or DTT and cell lysates at 37 °C and then determined the change with HPLC. […] As the reductive substance or cell lysates were added, the peak for prodrug 9 disappeared and the new peaks at 1.2 min appeared in 0.5 h and 2 h, respectively. The released parent dCDN was also confirmed with 3′,3′-c-di-dAMP through UPLC-MS (Figure S1).
Amounts of 10 mM DTT or GSH were added into prodrug 9 (100 μM) in an air-bath incubator at 37 °C for 0.5 h. Afterwards, 10 μL of each mixture was injected into HPLC for analysis. The HPLC methodology was the same as above.
Figure 3 Parent dCDNs release in GSH, DTT (a), and cell lysates (b). An amount of 100 μM prodrug 9 was added into the 10 mM GSH, 10 mM DTT, and cell lysates for various times (0.5 h and 2 h) at 37 °C and analyzed with HPLC (Agilent 1260, Santa Clara, CA, USA).

THP1-Lucia cells = experiment: THP1-Lucia cell-based luciferase reporter assay
Experimental: THP1-Lucia cell-based reporter assay. THP1-Lucia cells were seeded into a 24-well plate at a density of 5 × 10^4 cells/well. […] Finally, the medium was collected to determine the luciferase activity using QUANTI-Luc (InvivoGen, San Diego, CA, USA) according to the manufacturer′s instruction to calculate the EC50 values of the tested compounds. The results are expressed as the mean ± SD from three independent experiments. Emax values were normalized to the response induced by 2′,3′-cGAMP in each assay and expressed as a mean percentage ± SD from three independent experiments. The THP1-Lucia cell line was obtained from Prof. Junmin Quan from Peking University (Beijing, China).
Figure 5 The luciferase-based assay in the THP1-Lucia reporter cell line. (a) EC50 values represent the mean (±SD) of three independent experiments. (b) Emax values represent the mean (±SD) of three independent experiments.

CT-26 cells = experiment: RT-qPCR of IFN-β mRNA in CT-26 cells; type: cell-based; conditions: CT-26, prodrug 9 and ADU-S100 10 μM, CDNs 100 μM, 4 h
Experimental: Real-time quantitative PCR (RT-qPCR). The mRNA expression levels of diverse cytokines were measured using quantitative RT-PCR (RT-qPCR) assays. THP-1 cells or CT26 cells were incubated with the compounds for 4 h, subsequently harvested for RNA isolation according to the manufacturer’s instructions of RNApure Tissue&Cell Kit (DNase I) (CWBIO, Cambridge, MA, USA catalogue no. CW0560S). Next, 1 μg RNA was reversely transcribed to cDNA by TransScript All-in-One First-Strand cDNA Synthesis SuperMix for qPCR (One-Step gDNA Removal) (TransGen, Beijing, China). To examine the mRNA levels, real-time PCR was performed in a CFX96 Real-Time PCR system (Bio-RAD, Hercules, CA, USA) using PerfectStart Green qPCR Super Mix (TransGen) and primers (Sangon Biotech, Shanghai, China). The expression level was calculated according to the formula (2^−∆∆Ct) using the GAPDH or β-actin as the internal reference gene and the relative gene expression fold was normalized to the DMSO-treated cells. The THP-1 and CT26 cell lines were obtained from American Type Culture Collection (ATCC, Manassas, VA, USA). […]
(§1) expression levels of IFN-β were assessed by real-time quantitative PCR (qPCR) under the treatment of prodrug 9 (10 μM), 3′,3′-c-di-dAMP (100 μM), 2′,3′-cGAMP (100 μM) and ADU-S100 (10 μM) for 4 h.
Figure S3. […]
levels of IFN-β were assessed by an enzyme-linked immunosorbent assay (ELISA). […]

THP-1 cells = experiment: ELISA of IFN-β protein levels in THP-1 culture supernatants; type: cell-based, human; conditions: 4 h
Experimental: Enzyme-Linked Immunosorbent Assay (ELISA). THP-1 cells were incubated with the compounds for 4 h. Cell culture supernatants were then analyzed via ELISA for human IFN-β levels (ABclonal, Woburn, MA, USA, catalogue no. RK01630) according to the manufacturer’s instructions. […]
as §1
Figure S3. Prodrug 9 stimulated the production of IFN-β in THP-1 cells. Under the treatment of prodrug […]
levels of IFN-β were assessed by an enzyme-linked immunosorbent assay (ELISA).
(also on this page, place not known: t reatment -S100 9 3',3'-c-di-dAMPADU-S100 IFN-β/β-actin IFN-β in Culture Medium (pg/ml)) […]

HEK293T cells = experiment: CCK8 cell viability, HEK293T cells; type: cell-based; conditions: 10 μM, 24 h
Experimental: Cell viability of THP-1 and HEK293T cells. A total of 5 × 10^3 HEK293T cells or THP-1 cells were seeded in 96-well plates. […] Cell counting kit-8 (CCK8) (US EVERBRIGHT, Newport Beach, CA, USA, c6005) was then used to quantitatively assess the cell viability through the OD value at 450 nm. The HEK293T cell line was obtained from American Type Culture Collection (ATCC).
Figure 8 Cell viability of THP-1 and HEK293T cells stimulated by prodrug 9 and 2′,3′-cGAMP. (a) A total of 5 × 10^3 THP-1 cells or (b) HEK293T cells were seeded in 96-well plates. Cells were stimulated with prodrug 9 (10 μM), 3′,3′-c-di-dAMP (100 μM), and 2′,3′-cGAMP (100 μM) for 24 h. Then, cell counting kit-8 (CCK8) (US EVERBRIGHT, c6005) was used to quantitatively assess cell viability through the OD value at 450 nm. Data are presented as mean ± SD, n = 3.

Nc1ncnc2c1ncn2C1CC2OP(=O)(OCCSSc3ccccn3)OCC3OC(n4cnc5c(N)ncnc54)CC3OP(=O)(OCCSSc3ccccn3)OCC2O1 (stereo not shown) [prodrug 9]
time at which prodrug peak disappeared and parent dCDN peak appeared ([1]; 100 μM prodrug, 10 mM GSH or DTT, 37 °C): 0.5 h | time to decompose and release the parent dCDN ([1]; reductive substance GSH or DTT): 30 min | fold activity (EC50) vs 3′,3′-c-di-dAMP (THP1-Lucia cells): ~43 fold | fold activity (EC50) vs ADU-S100 (THP1-Lucia cells): ~3.0 fold and 3 fold | maximum activation fold (Emax) relative to 2′,3′-cGAMP (THP1-Lucia cells): approximately 1.8 fold | maximum activation fold (Emax) relative to 3′,3′-c-di-dAMP (THP1-Lucia cells): ~1.9 fold | maximum activation fold (Emax) relative to ADU-S100 (THP1-Lucia cells): ~1.4 fold | EC50 (THP1-Lucia cells; 24 h): 960 nM | induction of IFN-β transcription in CT-26 cells (CT-26 cells): did not | IFN-β protein level, fold compared to 2′,3′-cGAMP (THP-1 cells; THP-1, prodrug 9 10 μM vs 2′,3′-cGAMP 100 μM): approximately 66 fold | IFN-β protein level, fold compared to 3′,3′-c-di-dAMP (THP-1 cells; THP-1, prodrug 9 10 μM vs 3′,3′-c-di-dAMP 100 μM): ~4.3 fold | IFN-β protein level, fold compared to ADU-S100 (THP-1 cells; THP-1, prodrug 9 10 μM vs ADU-S100 10 μM): ~5.6 fold | cell viability (CCK8), HEK293T cells (HEK293T cells): no significant influence on the growth
